One series concerns the target T1, human SGLT1 (Homo sapiens, UniProt P13866).
T1 construct: expressed in transfected cells
T1 sequence (P13866 1-664): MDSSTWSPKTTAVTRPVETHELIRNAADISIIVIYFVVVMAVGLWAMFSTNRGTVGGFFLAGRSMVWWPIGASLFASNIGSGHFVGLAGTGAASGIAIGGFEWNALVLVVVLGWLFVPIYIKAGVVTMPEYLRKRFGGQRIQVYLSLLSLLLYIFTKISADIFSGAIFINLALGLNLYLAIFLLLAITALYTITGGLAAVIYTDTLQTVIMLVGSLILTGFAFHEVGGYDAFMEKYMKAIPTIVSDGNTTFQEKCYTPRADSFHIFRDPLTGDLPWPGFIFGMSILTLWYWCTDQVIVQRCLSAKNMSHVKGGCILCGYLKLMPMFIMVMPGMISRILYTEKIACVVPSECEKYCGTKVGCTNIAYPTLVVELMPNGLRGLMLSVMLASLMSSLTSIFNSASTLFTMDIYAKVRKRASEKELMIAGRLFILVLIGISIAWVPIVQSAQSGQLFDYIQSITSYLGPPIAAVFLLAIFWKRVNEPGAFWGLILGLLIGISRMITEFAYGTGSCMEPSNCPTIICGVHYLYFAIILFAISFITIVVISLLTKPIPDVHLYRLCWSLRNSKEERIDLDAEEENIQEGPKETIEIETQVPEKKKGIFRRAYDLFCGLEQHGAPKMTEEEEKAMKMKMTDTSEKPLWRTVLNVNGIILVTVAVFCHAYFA
Kind of series: Assay for inhibitory effects on human SGLT1 activity (uptake of methyl-α-D-glucopyranoside in CS1-5-11D cells). It counts as cell-based. The settings on record: CHO-K1 cells stably expressing human SGLT1 (CS1-5-11D); 1 mM α-MG uptake, 37° C., 1 hour. As for the experimental part: Assay for Inhibitory Effects on Human SGLT1 Activity
1) Cloning and Construction of the Vector Expressing Human SGLT1
The cDNA library was prepared for PCR amplification by reverse transcription from total RNA deprived from human small intestine (Ori gene) using oligo-dT as a primer.
2) Establishment of Cell Line Stably Expressing Human SGLT1
The expression vector of human SGLT1 was digested by Sca I into a linear DNA. The linear DNA was transfected into CHO-K1 cells by means of lipofection (Effectene Transfection Reagent: QIAGEN). Neomycin resistant cell lines were selected by culture in the medium containing G418 (1 mg/mL, LIFE TECHNOLOGIES), and then the activity against the uptake of methyl-α-D-glucopyranoside was measured by the method described below. […] CS1-5-11D cells were cultured in the presence of G418 at 200 μg/mL.
3) Measurement of the Inhibitory Activity Against the Uptake of Methyl-α-D-glucopyranoside (α-MG)
CS1-5-11D cells were seeded into a 96-well culture plate at a density of 3×10^4 cells/well and cultured for 2 days, and were used in the uptake assay. A mixture of non-labeled (Sigma) and ^14C-labeled α-MG (Amersham Pharmcia Biotec) was added to the uptake buffer (pH 7.4: containing 140 mM sodium chloride, 2 mM potassium chloride, 1 mM calcium chloride, 1 mM magnesium chloride, 10 mM 2-[4-(2-hydroxyethyl)-1-piperazinyl]ethane sulfonic acid, and 5 mM tris(hydroxymethyl)aminomethane) at the final concentration of 1 mM. A test compound was dissolved in dimethyl sulfoxide, and then appropriately diluted with distilled water. The test compound solution was added to the uptake buffer containing 1 mM α-MG, and designated as a measurement buffer. For the control group, the measurement buffer without any test compound was prepared. For measuring the basal uptake, a basal uptake measurement buffer which contains 140 mM chorine chloride instead of sodium chloride was prepared. After removing the culture medium of CS1-5-11D cells, 180 μL of the pre-treatment buffer (the basal uptake buffer without α-MG) was added to each well and incubated at 37° C. for 10 minutes. After repeating the same treatment, the pre-treatment buffer was removed. To each well was added 75 μL of the measurement buffer or the basal uptake buffer was added and incubated at 37° C. for 1 hour. After removing the measurement buffer, cells were washed twice with 180 μL per well of the washing buffer (the basal uptake buffer containing 10 mM non-labeled α-MG). The cells were solubilized by 75 μL per well of 0.2 mol/L sodium hydroxide. The cell lysates were transferred into PicoPlates (Packard), and then added 150 μL of MicroScint-40 (Packard) and mixed. Radioactivity was measured by means of micro-scintillation counter TopCount (Packard). One hundred was set to the difference between the uptake in the control group and the basal uptake, and the uptake of methyl α-D-glucopyranoside a teach drug concentration were calculated.

The test system of another series is diabetic rats. Kind of series: Assay for inhibitory effects on blood glucose level increase in rats (liquid meal tolerance test). The settings on record: test compound 1 mg/kg orally, liquid meal 17.25 kcal/kg, mean±S.E.; for Plasma glucose concentration 0.5 h: 0.5 hour after the drug administration; for Plasma glucose concentration 1 h: 1 hour after the drug administration. It counts as in vivo, rat. As for the experimental part:
Assay for Inhibitory Effects on Blood Glucose Level Increase in Rats
1) Preparation of Diabetic Rat Model
Male wistar rats (Japan Charles River), aged 8 weeks old, were injected nicotinamide (230 mg/kg) intraperitoneally. Fifteen minutes after injection, they were injected streptozotocin (85 mg/kg) intravenously from tail vain under anesthesia with ether. After a week, rats were fasted overnight and then glucose tolerance test (2 g/kg) was done.
2) Liquid Meal Tolerance Test
After overnight fasted, the diabetic rats were orally administered a test compound (1 mg/kg), which was dissolved in distilled water or 0.5% aqueous carboxymethylcellulose solution, in the drug-treating group, or distilled water or 0.5% aqueous carboxymethylcellulose solution alone in a control group. Immediately after the compound administration, 17.25 kcal/kg of liquid meal (No. 038, Control diet, assorted with dextrin and maltose; Oriental Yeast Co., Ltd.) was loaded orally. The blood was collected from tail artery immediately before and after administration with the time course, and treated with heparin immediately. The blood was centrifuged, and the plasma was collected to quantify the plasma glucose concentration by glucose oxidase method. The values in the Table are presented as the mean±S.E.

In the next series the test system is Male ICR mice. The series can be described thus: Acute toxicity test. Type of series: in vivo. The settings on record: n=5, oral dose of 1 g/kg, observed for 24 hours. As for the experimental part:
Male ICR mice (CLEA Japan, Inc.; 32-37 g, n=5), aged 6 weeks old, were fasted for 4 hours.

As a reminder, the IC50 is the concentration that gives 50% inhibition. A higher IC50 goes with weaker potency.

Structures are written as SMILES.

`CC(C)c1[nH]nc(O[C@@H]2O[C@H](CO)[C@@H](O)[C@H](O)[C@H]2O)c1Cc1ccc(OCCCNC(=O)NC(C)(CO)CO)cc1` [Example 21, 3-(β-D-Glucopyranosyloxy)-4-{[4-(3-{3-[2-hydroxy-1-(hydroxymethyl)-1-(methyl)ethyl]ureido}propoxy)phenyl]-methyl}-5-isopropyl-1H-pyrazole]: the IC50 on human SGLT1 is 127 nM. In addition, in the series with diabetic rats, the “Plasma glucose concentration 0.5 h” value is recorded as 211 ± 22 mg/dL and the “Plasma glucose concentration 1 h” value turned out to be 242 ± 35 mg/dL.
For `CC(C)c1[nH]nc(O[C@@H]2O[C@H](CO)[C@@H](O)[C@H](O)[C@H]2O)c1Cc1ccc(OCCCNC(=O)NC(C)(C)CO)cc1` [Example 24, 3-(β-D-Glucopyranosyloxy)-4-{[4-(3-{3-[2-hydroxy-1,1-di(methyl)ethyl]ureido}propoxy)phenyl]methyl}-5-isopropyl-1H-pyrazole] the same measures were 61 nM, 210 ± 33 mg/dL and 228 ± 50 mg/dL.
For `Cc1cc(OCCCN2CCN(CCO)CC2)ccc1Cc1c(O[C@@H]2O[C@H](CO)[C@@H](O)[C@H](O)[C@H]2O)n[nH]c1C(C)C` [Example 35, 3-(β-D-Glucopyranosyloxy)-4-[(4-{3-[4-(2-hydroxyethyl)piperazin-1-yl]propoxy}-2-methylphenyl)methyl]-5-isopropyl-1H-pyrazole] the same measures were 160 nM, 188 ± 16 mg/dL and 229 ± 25 mg/dL.
For `CC(C)c1[nH]nc(O[C@@H]2O[C@H](CO)[C@@H](O)[C@H](O)[C@H]2O)c1Cc1ccc(OCCCNC(=NC#N)NCCO)cc1` [Example 37, 4-[(4-{3-[2-Cyano-3-(2-hydroxyethyl)guanidino]propoxy}phenyl)methyl]-3-(β-D-glucopyranosyloxy)-5-isopropyl-1H-pyrazole] the same measures were 158 nM, 231 ± 21 mg/dL and 286 ± 31 mg/dL.
Regarding `Cc1cc(OCCCNCC(N)=O)ccc1Cc1c(O[C@@H]2O[C@H](CO)[C@@H](O)[C@H](O)[C@H]2O)n[nH]c1C(C)C` [Example 45], the IC50 on human SGLT1 stood at 68 nM. For the same compound, in the series with diabetic rats, the “Plasma glucose concentration 0.5 h” value is 169 ± 18 mg/dL and the “Plasma glucose concentration 1 h” value is given as 182 ± 27 mg/dL.
For `Cc1cc(OCCCNCCC(N)=O)ccc1Cc1c(O[C@@H]2O[C@H](CO)[C@@H](O)[C@H](O)[C@H]2O)n[nH]c1C(C)C` [Example 52, 4-[(4-{3-[2-(Carbamoyl)ethylamino]propoxy}-2-methylphenyl)methyl]-3-(β-D-glucopyranosyloxy)-5-isopropyl-1H-pyrazole], in the series on diabetic rats, the “Plasma glucose concentration 0.5 h” value amounted to 163 ± 5 mg/dL and the “Plasma glucose concentration 1 h” value turned out to be 176 ± 10 mg/dL. The Number of death in the series with Male ICR mice was 0/5.
As to `Cc1cc(OCCCNC(=N)N)ccc1Cc1c(O[C@@H]2O[C@H](CO)[C@@H](O)[C@H](O)[C@H]2O)n[nH]c1C(C)C` [Example 55, 3-(β-D-Glucopyranosyloxy)-4-{[4-(3-guanidinopropoxy)-2-methylphenyl]methyl}-5-isopropyl-1H-pyrazole], half-maximal inhibition against human SGLT1 (IC50) required 98 nM. In addition, in the series on diabetic rats, the “Plasma glucose concentration 0.5 h” value amounted to 200 ± 16 mg/dL and the “Plasma glucose concentration 1 h” value is 211 ± 18 mg/dL.
Taken in the same sequence, the figures for `Cc1cc(OCCNC(=N)N)ccc1Cc1c(O[C@@H]2O[C@H](CO)[C@@H](O)[C@H](O)[C@H]2O)n[nH]c1C(C)C` [Example 56, 3-(β-D-Glucopyranosyloxy)-4-{[4-(2-guanidinoethoxy)-2-methylphenyl]methyl}-5-isopropyl-1H-pyrazole] were 38 nM, 146 ± 7 mg/dL and 165 ± 17 mg/dL.
`Cc1cc(OCCCNC(CO)CO)ccc1Cc1c(O[C@@H]2O[C@H](CO)[C@@H](O)[C@H](O)[C@H]2O)n[nH]c1C(C)C` [Example 59, 3-(β-D-Glucopyranosyloxy)-4-[(4-(3-[2-hydroxy-1-(hydroxymethyl)ethylamino]propoxy)-2-methylphenyl)methyl]-5-isopropyl-1H-pyrazole]: the IC50 against human SGLT1 was found to be 71 nM. For the same compound, in the series with diabetic rats, the “Plasma glucose concentration 0.5 h” value came out at 143 ± 4 mg/dL and the “Plasma glucose concentration 1 h” value turned out to be 154 ± 13 mg/dL.
At human SGLT1, `CC(C)c1[nH]nc(O[C@@H]2O[C@H](CO)[C@@H](O)[C@H](O)[C@H]2O)c1Cc1ccc(OCCCNCc2cccnc2)cc1` [Example 64, 3-(β-D-Glucopyranosyloxy)-5-isopropyl-4-({4-[3-(3-pyridyl-methylamino)propoxy]phenyl}methyl)-1H-pyrazole] returned an IC50 of 178 nM. Also, in the series with diabetic rats, the “Plasma glucose concentration 0.5 h” value came to 141 ± 12 mg/dL and the “Plasma glucose concentration 1 h” value is 148 ± 22 mg/dL. Moreover, in the series with diabetic rats (pretreatment (0 h)), the “Plasma glucose concentration 0 h” value is on record as 116 ± 2 mg/dL.

Source of the values: patent US8324176B2, “Pyrazole derivatives, medicinal composition containing the same, medicinal use thereof, and intermediate for production thereof” (Kissei Pharmaceutical Co., Ltd., priority 2002, dated 2012).
